According to patent publication US10131644B2, “Aryl sultam derivatives as RORc modulators” (Genentech, Inc., priority 2014, dated 2018):
Counter-ions that a name gives are not always drawn.

Target: T1, RORc (Homo sapiens, UniProt P51449)
T1 sequence (P51449 269-508 limits assumed): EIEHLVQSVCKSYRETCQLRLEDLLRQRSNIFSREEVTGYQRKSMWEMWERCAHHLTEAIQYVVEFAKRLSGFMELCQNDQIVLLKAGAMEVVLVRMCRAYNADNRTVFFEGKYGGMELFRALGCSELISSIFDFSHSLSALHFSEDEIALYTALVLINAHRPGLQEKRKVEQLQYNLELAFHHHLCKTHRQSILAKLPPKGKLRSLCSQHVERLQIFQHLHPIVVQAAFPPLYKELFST
Test: In vitro RORc ligand binding assay (25-[3H]hydroxycholesterol displacement)
Details: IC50, IC50 values for RORc; unit inferred
Experimental: This assay was used to determine a compound's potency in inhibiting activity of RORc by determining, Kiapp, IC50, or percent inhibition values.
On day of the assay, 100 uL of 0.05% CHAPS (in deionized H2O) was added to all wells of the GFB Unifilter plate and allowed soak for 1 h. A wash buffer of 50 mM HEPES (pH 7.4), 150 mM NaCl, and 5 mM MgCl2 was prepared to wash the filter plate. To prepare an assay buffer, BSA was added to the wash buffer to reach 0.01% and DTT was added to reach 1 mM.
The 20× compound stocks were diluted in DMSO with Assay Buffer 4-fold to reach 5× the final test concentration in 25% DMSO (10 uL compound+30 uL Assay Buffer). Solutions were mixed by aspiration several times with a pipette set on 50 uL volume. For the assay, 10 uL of 5× compound stock solutions in 25% DMSO were added to the assay plate in duplicate.
For two point screening, 10 mM stock compound solutions were diluted in DMSO to obtain 200 uM (20× the high test concentration) and then diluted 10-fold further to reach 20 uM (20× the low test concentration). The 20× stocks were diluted 4-fold with Assay Buffer (10 uL compound+30 uL Assay Buffer) to reach 5× the test concentrations (50 uM and 5 uM) and 10 uL were added to two assay plates for the duplicate wells. With each concentration tested on 2 plates, each set of 80 compounds used 4 assay plates (1 uM and 10 uM, with n=2).
For 25-hydroxycholesterol in 25% DMSO/75% Assay Buffer; 10 uL per well was used for NSB samples. Wells for Total Binding and No Receptor sample determination contained 10 uL of 25% DMSO/75% Assay Buffer per well.
Add 20 uL to all wells to reach 6 nM final in the assay.
Stock receptor solution was diluted in assay buffer to obtain 1.5 ug/mL in Assay Buffer. 20 uL was added to all wells. For No R samples, 20 uL Assay Buffer was substituted for receptor solution.
Assay plates were 96-well polypropylene V-bottom plates. 10 uL of 5× compound in 25% DMSO/75% Assay Buffer was added to Test wells. 10 uL of 25% DMSO/75% Assay Buffer was added to Total Binding or No Receptor wells. 10 uL of 5 uM 25-hydroxycholesterol in 25% DMSO/75% Assay Buffer was added to NSB wells. […] 20 uL of 1.5 ug/mL RORc receptor was added to wells (or 40 uL Assay Buffer to No R wells). Following addition to the wells, the plates were incubated 3 h at 25° C.
Using a Packard Filtermate Harvester, the filter plate were washed 4 times following transfer of the incubated samples. Plates were dry-filtered completely (2 h at 50° C. or overnight at room temperature). 50 uL Microscint 0 was added to all wells and read on Topcount protocol Inverted.
For NSB wells, 1 uM 25-hydroxycholesterol was also present.

Row | IC50 [nM] | SMILES
1 | 2400 | C[C@H]1CC[C@H](c2ccccc2)S(=O)(=O)N1Cc1ccc([C@]2(C(=O)N(C)C)CC[C@H](n3cnnc3)CC2)cc1 [Example 16, 1-[4-((3S,6R)-3-Methyl-1,1-dioxo-6-phenyl-[1,2]thiazinan-2-ylmethyl)-phenyl]-4-[1,2,4]triazol-4-yl-cyclohexanecarboxylic acid dimethylamide]
2 | 310 | C[C@H]1CC[C@H](c2ccccc2)S(=O)(=O)N1Cc1ccc([C@]2(C#N)CC[C@@H](NC=O)CC2)cc1 [Example 19, N-{4-Cyano-4-[4-((3S,6R)-3-methyl-1,1-dioxo-6-phenyl-[1,2]thiazinan-2-ylmethyl)-phenyl]-cyclohexyl}-formamide]
3 | 17.9 | CC(=O)N1CCC(OCC(=O)O)(c2cc(F)c(CN3[C@@H](C)CC[C@H](c4ccccc4)S3(=O)=O)cc2F)CC1 [Compound 137, 2-[[1-acetyl-4-[2,5-difluoro-4-[[(3S,6R)-3-methyl-1,1-dioxo-6-phenyl-thiazinan-2-yl]methyl]phenyl]-4-piperidyl]oxy]acetic acid]
4 | 24 | C[C@H]1CC[C@H](c2ccccc2)S(=O)(=O)N1Cc1ccc(C2(N(C)CC(N)=O)CCOCC2)cc1F [Compound 188, 2-[[4-[3-fluoro-4-[[(3S,6R)-3-methyl-1,1-dioxo-6-phenyl-thiazinan-2-yl]methyl]phenyl]tetrahydropyran-4-yl]-methyl-amino]acetamide]
5 | 47.2 | C[C@H]1CC[C@H](c2ccccc2)S(=O)(=O)N1Cc1cc(F)c(C2(OCC(=O)N(C)CCO)CCOCC2)cc1F [Compound 157, 2-[4-[2,5-difluoro-4-[[(3S,6R)-3-methyl-1,1-dioxo-6-phenyl-thiazinan-2-yl]methyl]phenyl]tetrahydropyran-4-yl]oxy-N-(2-hydroxyethyl)-N-methyl-acetamide]
6 | 5.2 | C[C@H]1CC[C@H](c2ccccc2)S(=O)(=O)N1Cc1cc(F)c(C2(CO)CCC(n3cnnc3)CC2)cc1F (stereo partly drawn) [Compound 133, [1-[2,5-difluoro-4-[[(3S,6R)-3-methyl-1,1-dioxo-6-phenyl-thiazinan-2-yl]methyl]phenyl]-4-(1,2,4-triazol-4-yl)cyclohexyl]methanol]
7 | 40.9 | CCOC(=O)[C@H](C)NC1(c2ccc(CN3[C@@H](C)CC[C@H](c4ccccc4)S3(=O)=O)c(F)c2)CCOCC1 [Compound 184, ethyl (2S)-2-[[4-[3-fluoro-4-[[(3S,6R)-3-methyl-1,1-dioxo-6-phenyl-thiazinan-2-yl]methyl]phenyl]tetrahydropyran-4-yl]amino]propanoate]
8 | 79.8 | C[C@H]1CC[C@H](c2ccccc2)S(=O)(=O)N1Cc1ccc(C2(C(=O)NCCCO)CCOCC2)cc1F [Compound 54, 4-[3-fluoro-4-[[(3S,6R)-3-methyl-1,1-dioxo-6-phenyl-thiazinan-2-yl]methyl]phenyl]-N-(3-hydroxypropyl)tetrahydropyran-4-carboxamide]
9 | 8.1 | C[C@H]1CC[C@H](c2ccccc2)S(=O)(=O)N1Cc1cc(F)c(C2(CO)CCC(O)CC2)cc1F (stereo partly drawn) [Compound 129, 4-[2,5-difluoro-4-[[(3S,6R)-3-methyl-1,1-dioxo-6-phenyl-thiazinan-2-yl]methyl]phenyl]-4-(hydroxymethyl)cyclohexanol]
10 | 55.2 | C[C@H]1CC[C@H](c2ccccc2)S(=O)(=O)N1Cc1ccc([C@]2(C(N)=O)C[C@@H](O)C2)cc1F [Compound 183, 1-[3-fluoro-4-[[(3S,6R)-3-methyl-1,1-dioxo-6-phenyl-thiazinan-2-yl]methyl]phenyl]-3-hydroxy-cyclobutanecarboxamide]
11 | 228 | C[C@H]1CC[C@H](c2ccccc2)S(=O)(=O)N1Cc1ccc(C2(C(=O)NCC(=O)O)CCOCC2)cc1F [Compound 58, 2-[[4-[3-fluoro-4-[[(3S,6R)-3-methyl-1,1-dioxo-6-phenyl-thiazinan-2-yl]methyl]phenyl]tetrahydropyran-4-carbonyl]amino]acetic acid]
12 | 6.1 | C[C@H]1CC[C@H](c2ccccc2)S(=O)(=O)N1Cc1cc(F)c(C2(OCC(N)=O)CCOCC2)cc1F [Compound 150, 2-[4-[2,5-difluoro-4-[[(3S,6R)-3-methyl-1,1-dioxo-6-phenyl-thiazinan-2-yl]methyl]phenyl]tetrahydropyran-4-yl]oxyacetamide]
13 | 22.6 | C[C@H]1CC[C@H](c2ccccc2)S(=O)(=O)N1Cc1ccc(C2(NC[C@H](O)CO)CCOCC2)cc1F [Compound 107, (2S)-3-[[4-[3-fluoro-4-[[(3S,6R)-3-methyl-1,1-dioxo-6-phenyl-thiazinan-2-yl]methyl]phenyl]tetrahydropyran-4-yl]amino]propane-1,2-diol]
14 | 220 | C[C@H]1CC[C@H](c2ccccc2)S(=O)(=O)N1Cc1ccc(OCC2(C#N)CCOCC2)cc1F [Example 6, 4-{3-Fluoro-4-((3S,6R)-3-methyl-1,1-dioxo-6-phenyl-[1,2]thiazinan-2-ylmethyl)-phenoxymethyl]-tetrahydro-pyran-4-carbonitrile]
15 | 72.8 | C[C@H]1CC[C@@H](c2ccccc2)S(=O)(=O)N1Cc1cc(F)c(C2(CO)CCC(O)CC2)cc1F (stereo partly shown) [Compound 131]
16 | 21.6 | CC(=O)N1CCC(OCC(O)CO)(c2cc(F)c(CN3[C@@H](C)CC[C@H](c4ccccc4)S3(=O)=O)cc2F)CC1 (stereo partly drawn) [Compound 144, 1-[4-[2,5-difluoro-4-[[(3S,6R)-3-methyl-1,1-dioxo-6-phenyl-thiazinan-2-yl]methyl]phenyl]-4-(2,3-dihydroxypropoxy)-1-piperidyl]ethanone]
17 | 346 | C[C@H]1CC[C@H](c2ccccc2)S(=O)(=O)N1Cc1cc(F)c(C2(C(N)=O)CC2)cc1F [Compound 125, 1-[2,5-difluoro-4-[[(3S,6R)-3-methyl-1,1-dioxo-6-phenyl-thiazinan-2-yl]methyl]phenyl]cyclopropane-carboxamide]
18 | 572 | C[C@H]1CC[C@H](c2ccccc2)S(=O)(=O)N1Cc1ccc(C2(N)CC2)cc1F [Compound 153, 1-[3-fluoro-4-[[(3S,6R)-3-methyl-1,1-dioxo-6-phenyl-thiazinan-2-yl]methyl]phenyl]cyclopropanamine; hydrochloride]
19 | 180 | C[C@H]1CC[C@H](c2ccccc2)S(=O)(=O)N1Cc1ccc(C2(O)CCC3(CC2)OCCO3)cc1F [Compound 24, 8-[3-Fluoro-4-((3S,6R)-3-methyl-1,1-dioxo-6-phenyl-[1,2]thiazinan-2-ylmethyl)-phenyl]-1,4-dioxa-spiro[4.5]decan-8-ol]
20 | 23.7 | C[C@H]1CC[C@H](c2ccccc2)S(=O)(=O)N1Cc1cc(F)c(C2(CCC(N)=O)CC2)cc1F [Compound 139, 3-[1-[2,5-difluoro-4-[[(3S,6R)-3-methyl-1,1-dioxo-6-phenyl-thiazinan-2-yl]methyl]phenyl]cyclopropyl]propanamide]
21 | 8.8 | C[C@H]1CC[C@H](c2ccccc2)S(=O)(=O)N1Cc1ccc(C2(CCC(N)=O)CCOCC2)cc1F [Compound 87, 3-[4-[3-fluoro-4-[[(3S,6R)-3-methyl-1,1-dioxo-6-phenyl-thiazinan-2-yl]methyl]phenyl]tetrahydropyran-4-yl]propanamide]
22 | 3.2 | C[C@H]1CC[C@H](c2ccccc2)S(=O)(=O)N1Cc1ccc(C2(NCC(N)=O)CCOCC2)cc1F [Compound 163, 2-[[4-[3-fluoro-4-[[(3S,6R)-3-methyl-1,1-dioxo-6-phenyl-thiazinan-2-yl]methyl]phenyl]tetrahydropyran-4-yl]amino]acetamide]
